Measurements as given in ChEMBL document CHEMBL1201862, “PubChem BioAssay data set” (2004).
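These data come from cells grown in 96-well plates and exposed to compound for 48 hours at five concentrations. Abbreviation: GI50, concentration required for 50% inhibition of growth.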 Activity calls are given as the source filed them. No stated cut-off is given here; in the data, active = GI50 up to about 1.1 µM and inactive = higher.

Experiments:
Test in all cases: inhibition of tumour cell growth, NCI panel, 48 h
[1] = test system: MOLT-4
[2] = test system: SNB-19
[3] = test system: NCI-H522
[4] = test system: OVCAR-8
[5] = test system: BT-549
[6] = test system: RPMI-8226
[7] = test system: HCC 2998
[8] = test system: HOP-92
[9] = test system: UO-31
[10] = test system: SK-MEL-2
[11] = test system: Malme-3M
[12] = test system: CAKI-1
[13] = test system: CCRF-CEM
[14] = test system: SF-268
[15] = test system: EKVX
[16] = test system: M14
[17] = test system: T47D
[18] = test system: MDA-N
[19] = test system: OVCAR-4
[20] = test system: HCT-15
[21] = test system: NCI-H23
[22] = test system: SK-MEL-28
[23] = test system: DU-145
[24] = test system: HCT-116
[25] = test system: A549
[26] = test system: SF-295
[27] = test system: COLO 205
[28] = test system: 786-0
[29] = test system: MCF7
[30] = test system: SK-MEL-5
[31] = test system: LOX IMVI
[32] = test system: NCI-H226
[33] = test system: SR
[34] = test system: Hs-578T
[35] = test system: MDA-MB-231
[36] = test system: HOP-62
[37] = test system: HT-29
[38] = test system: NCI-H460
[39] = test system: TK-10
[40] = test system: K562
[41] = test system: UACC-257
[42] = test system: UACC-62
[43] = test system: OVCAR-3
[44] = test system: SK-OV-3
[45] = test system: SW-620
[46] = test system: OVCAR-5
[47] = test system: SNB-75
[48] = test system: HL-60
[49] = test system: SN12C
[50] = test system: SF-539
[51] = test system: A498
[52] = test system: ACHN
[53] = test system: IGROV-1
[54] = test system: MDA-MB-435
[55] = test system: RXF 393
[56] = test system: NCI/ADR-RES
[57] = test system: KM12
[58] = test system: U-251
[59] = test system: PC-3

Measured: GI50

CC(=O)c1[nH]c(NC(C)C)c(C(=S)Nc2ccccc2)c1N
26.9 µM: [20]
active: [6] 0.059 µM
inactive: [1] 37.2 µM | [2] 27.8 µM | [3] 16.6 µM | [4] 28.4 µM | [5] 30.5 µM | [7] 28.2 µM | [8] 17.7 µM | [9] 20.5 µM | [10] 17.9 µM | [11] 25.7 µM | [12] 32.9 µM | [13] 25.5 µM | [14] 25.3 µM | [15] 37 µM | [16] 19.8 µM | [17] 21.4 µM | [18] 22.1 µM | [19] 30.4 µM | [21] 36 µM | [22] 32.4 µM | [23] 26.7 µM | [24] 24.1 µM | [25] 32.3 µM | [26] 38.1 µM | [27] 27.9 µM | [28] 24.3 µM | [29] 19.5 µM | [30] 18.3 µM | [31] 19.1 µM | [32] 21.1 µM | [33] 23.7 µM | [34] 36 µM | [35] 22.3 µM | [36] 38 µM | [37] 38.8 µM | [38] 31.8 µM | [39] 40.8 µM | [40] 33.4 µM | [41] 24 µM | [42] 23.6 µM | [43] 32.1 µM | [44] 65.9 µM | [45] 54.1 µM | [46] 61.8 µM | [47] > 100 µM | [48] 51.6 µM | [49] 27.9 µM | [50] > 100 µM | [51] 18.9 µM | [52] 33.3 µM | [53] 26.4 µM | [54] 21.7 µM | [55] 18.4 µM | [56] 68.5 µM | [57] 29.6 µM

COC(=O)C(NC(=O)c1ccccc1)c1ccco1 (centres undefined)
> 100 µM: [20]
inactive: [1] > 100 µM | [2] > 100 µM | [4] > 100 µM | [5] > 100 µM | [6] > 100 µM | [7] > 100 µM | [8] > 100 µM | [9] > 100 µM | [11] > 100 µM | [58] > 100 µM | [13] > 100 µM | [14] > 100 µM | [15] > 100 µM | [16] > 100 µM | [17] > 100 µM | [18] > 100 µM | [21] > 100 µM | [22] > 100 µM | [23] > 100 µM | [24] > 100 µM | [25] > 100 µM | [26] > 100 µM | [59] > 100 µM | [28] > 100 µM | [29] > 100 µM | [30] > 100 µM | [32] > 100 µM | [33] > 100 µM | [34] > 100 µM | [36] > 100 µM | [37] > 100 µM | [38] > 100 µM | [39] > 100 µM | [40] > 100 µM | [41] > 100 µM | [42] > 100 µM | [43] > 100 µM | [44] > 100 µM | [45] > 100 µM | [46] > 100 µM | [47] > 100 µM | [48] > 100 µM | [49] > 100 µM | [50] > 100 µM | [51] > 100 µM | [52] > 100 µM | [53] > 100 µM | [54] > 100 µM | [55] > 100 µM | [56] > 100 µM | [57] > 100 µM
